Patent US20230310392A1, “COMPOSITIONS AND METHODS FOR THE TREATMENT OF EYE CONDITIONS” (Lenz Therapeutics, Inc., priority 2021, published 2023)
Values joined by “and” are separate entries in the source; they are usually repeats but may differ in a detail not shown here. Equal values may be shown once.

Columns and labels:
presbyopic subjects = assay: Effect of aceclidine compositions on near and distance vision of presbyopic subjects aged 47 to 67 (Example 1); assay type: in vivo, human; details: for Effect: duration of effect; for Post Gtt 15″ L Post Dist: left eye distance vision; for Post Gtt 15″ L Post Near: left eye near vision; for Post Gtt 15″ R Post Dist: right eye distance vision; for Post Gtt 15″ R Post Near: right eye near vision
Protocol: As aceclidine is an […], the clinical effectiveness may vary with different ratios. For the present studies a nearly exact 50:50 ratio of stereoisomers was measured as best determined by polarimetry.
After administration of the composition all subjects experienced an improvement in their near vision that lasted from 7 to 12 hours.

subjects = assay: Modulation of aceclidine concentration in a preferred embodiment: stinging, redness, comfort, depth of focus (Example 2); assay type: in vivo, human
Protocol: Preferred embodiment: • Aceclidine 1.35% - 1.55% w/v; • Polyoxyl 40 stearate 5.5% w/v; • NaCl 0.037% w/v; • a viscosity agent, preferably CMC 0.80% w/v or an amount of Carbopol® 934 or 940 sufficient to achieve a viscosity of from about 5 to about 35 cps upon topical instillation, such as Carbopol® 940 at a concentration from about 0.09% to about 1.0% w/v; • BAK 0.015% w/v; and • a phosphate, citrate, citrophosphate, or acetate buffer from about 3 to about 10 mM, wherein the pH is from about 4.75 to about 6.0.
For 1.35% w/v aceclidine - • Stinging on topical instillation 0.25 / 4.0 (lasting about 2-5 seconds); • Induced redness at 10 minutes: 1.0 to 1.5/4.0; • Induced redness at 30 minutes: 0.0 to 0.25 / 4.0; • Comfort: very high. • Wetting: very high, the eye maintaining sensation of improved wetting for most of a 24-hour period after a single topical instillation. • Depth of Focus distance: excellent. • Depth of Focus near: excellent.
In testing the above formulations on several subjects, it was discovered that there is a slight range in clinical effect depending on the concentration of aceclidine, where 1.35% - 1.55% w/v aceclidine is preferred, but for which 1.35% w/v and 1.45% w/v confer the desired benefits on most subjects.

[1] = Stability of aceclidine in solution at 25° C. and 4° C. by HPLC (Example 6); assay type: physicochemical
Protocol: 20 samples of the above composition were divided evenly and stored at 25° C. and 4° C. Prior to storage, initial concentrations of aceclidine were measured using […] (“HPLC”). The amount of aceclidine in each solution was calculated by the area under the principal peak compared to a reference solution of aceclidine. Samples were then subject to storage for 3 months. Aceclidine measurements were taken at 1, 2 and 3 months.

presbyopic patient = assay: Compositions containing little or no cycloplegic agent: reading vs baseline at 40 cm, duration, comfort, efficacy index (Example 7); assay type: in vivo, human; details: 1.75% aceclidine, 2.5% mannitol, 0.01% tropicamide, 5% polysorbate 80, no viscosity agent
Text: Aceclidine alone causes incidence migraine-like severe ciliary spasm (brow ache) and myopic blur. These effects are inversely correlated to age with subjects age 40 reporting the highest incidence and subject age 60+ reporting the lowest incidence. The addition of a cycloplegic agent reduces ciliary spasms and attendant brow ache, migranious headache, squeezing pressure around eyes or other symptoms of ciliary spasms. […] The addition of 2.5% w/v mannitol however does reduce the myopic effect of aceclidine. Increasing the aceclidine concentration overcomes this reduction in myopic effect seen with the addition of mannitol. […] Even more surprising, the concentration of the cycloplegic agent can be reduced or even eliminated in the presence of mannitol without an increase in ciliary spasm. […]
Further and unexpectedly, the addition of a nonionic surfactant increases both the quantitative measure of near vision improvement and the duration. […]
In brief, the score is calculated by multiplying the lines of improvement in near visual acuity by the number of hours the improvement lasts. […]

presbyopic subject = assay: 1.75% aceclidine in saline, LogMAR visual acuity of a presbyopic subject (Example 13); assay type: in vivo, human
Protocol: A 1.75% aceclidine in saline solution was formulated. One drop was instilled into each eye of a presbyopic subject. The visual acuity of the subject was tested both before and after instillation using a LogMAR chart.

[2] = system: emmetrope over the age of 45; assay: Miotic agent with or without tropicamide and carrier: near and distance vision of an emmetrope over the age of 45 (FIG. 2); assay type: in vivo, human
Text: Subject is an emmetrope over the age of 45 with a baseline near vision of 20.100 and baseline distance vision of 20.20. […] […] A proper drug carrier can also have a beneficial effect.

pupil = assay: Duration of miosis of muscarinic agonist with brimonidine (description); assay type: in vivo, human
Protocol: It is further observed that concentration of brimonidine above 0.15% w/v causes significant trigger of the alpha 1 receptor leading to ischemia and rebound redness, which neutralizes the benefit of the prolonged duration at concentrations from about 0.07% to about 0.15% w/v brimonidine.
Another surprising discovery of the present invention, is that when the pH of a composition comprising a muscarinic agonist and brimonidine is below about 6.0 the duration of miosis is prolonged up to 14 hours.
In a still further embodiment lower pH is virtually found to cause the formulation to remain on the ocular surface longer, and therefore provide more sustained microvessel constriction and reduced egress of active ingredients.

patients = details: cited from earlier work
subject = details: in vivo
Text: The subject independently instilled 2 drops of the above compositions in each eye and the excess wiped from lids and lashes.
Stinging and Redness are based on a scale of 0 to 4 with 0 being none and 4 being the most severe.

[3] = aceclidine 1.1% composition with 0.125% w/v tropicamide
[4] = aceclidine 1.5% composition, object at 15 inches

Compound: CC(=O)OC1CN2CCC1CC2 (racemic) [aceclidine]
- Effect (presbyopic subjects; [3]): 12.00 h and 7.00 h
- Post Gtt 15″ L Post Dist (presbyopic subjects; [3]): 20.15 and 20.20
- Post Gtt 15″ L Post Near (presbyopic subjects; [3]): 20.15 and 20.25
- Post Gtt 15″ R Post Dist (presbyopic subjects; [3]): 20.15 and 20.20
- Post Gtt 15″ R Post Near (presbyopic subjects; [3]): 20.20 and 20.25
- Effect (presbyopic subjects; aceclidine 1.5% composition): 9.00 h and 8.00 h
- Post Gtt 15″ L Post Dist (presbyopic subjects; aceclidine 1.5% composition): 20.20 and 20.25 and 20.30
- Post Gtt 15″ L Post Near (presbyopic subjects; [4]): 20.15 and 20.20 and 20.30
- Post Gtt 15″ R Post Near (presbyopic subjects; [4]): 20.15 and 20.25 and 20.20
- Post Gtt 15″ R Post Dist (presbyopic subjects; aceclidine 1.5% with 5.5% HPβCD, 0.75% CMC, 0.25% NaCl, 0.01% BAK): 20.20 and 20.25
- Comfort (subjects; 1.35% w/v aceclidine): very high
- Depth of Focus distance (subjects; 1.35% w/v aceclidine): excellent
- Depth of Focus near (subjects; 1.35% w/v aceclidine): excellent
- Duration of stinging (subjects; 1.35% w/v aceclidine preferred embodiment): 2 to 5 s
- Stinging on topical instillation (subjects; 1.35% w/v aceclidine preferred embodiment, score out of 4.0): 0.25
- Aceclidine remaining ([1]; 4° C., 1 month): 93%
- Aceclidine remaining ([1]; 4° C., 2 months): 92%
- Aceclidine remaining ([1]; 4° C., 3 months): 88%
- Aceclidine remaining ([1]; 4° C., Initial): 100%
- Aceclidine remaining ([1]; 25° C., 1 month): 92%
- Aceclidine remaining ([1]; 25° C., 2 months): 75%
- Aceclidine remaining ([1]; 25° C., 3 months): 50%
- Aceclidine remaining ([1]; 25° C., Initial): 100%
- Near vision improvement (presbyopic patient): up to 3 lines of vision acuity
- LogMAR score at 1-meter distance after instillation (presbyopic subject; 1.75% aceclidine in saline, one drop each eye): -0.12 LogMAR
- LogMAR score at 45 centimeters distance after instillation (presbyopic subject; 1.75% aceclidine in saline, one drop each eye, 0.50 prior to instillation): 0.22 LogMAR
- Time at which noticeable degradation in reading distance acuity began (presbyopic subject; post instillation): 4 h
- Time improved reading distance acuity was maintained (presbyopic subject; post instillation): 3.5 h
- Distance vision ([2]; 1.55% w/v aceclidine in saline): without any effect on the baseline distance vision
- Near vision ([2]; 1.55% w/v aceclidine in saline): 20.40
- Time period of near vision improvement ([2]; 1.55% w/v aceclidine in saline): 6 h
- Near vision ([2]; aceclidine in carrier: 5.5% HPβCD, 0.75% CMC, 0.25% NaCl, 0.01% BAK): < 20.20
- Near vision ([2]; aceclidine in the carrier with 0.042% w/v tropicamide): 20.15
- Duration of miosis / efficacy for near depth of field improvement (pupil; aceclidine in a preferred vehicle, pupil sizes of 1.5 to 2.0 mm): 6 to 7 h
- Duration of miosis (pupil; with the addition of brimonidine at 0.07% to 0.08%): 10 to 12 h

Compound: Brc1c(NC2=NCCN2)ccc2nccnc12 [brimonidine]
- Treated subjects with tachyphylaxis of pupil modulation (patients; brimonidine 0.20% w/v topically for night vision, within four weeks of use): ~100%
- Patients with rebound redness (patients; brimonidine 0.20% w/v twice daily): 25%

Compound: Polysorbate 80
- Redness 1 hr (subject): 0.5
- Stinging (subject): 0.25

Compound: poloxamer 407
- Redness 1 hr (subject): 1
- Stinging (subject): 0.5
